From PubChem BioAssay (NCI)
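Interpolation was linear, between the two tested concentrations surrounding the appropriate level; five concentrations were tested over 48 hours in 96-well plates. At the TGI there is no net growth.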 Active and inactive are the calls of the source. No stated cut-off is given here; in the data, active means GI50 below about 0.43 µM; inactive means the rest.

What was measured:
Assay in all cases: NCI tumour cell line growth inhibition, 48 h
[1] = system: SK-OV-3 ovarian
[2] = system: BT-549 breast
[3] = system: M14 melanoma
[4] = system: NCI/ADR-RES ovarian
[5] = system: HCT-116 colon
[6] = system: RXF 393 renal
[7] = system: UO-31 renal
[8] = system: SN12C renal
[9] = system: MDA-MB-231 breast
[10] = system: NCI-H23 lung
[11] = system: T-47D breast
[12] = system: SF-268 CNS
[13] = system: SF-539 CNS
[14] = system: MDA-MB-435
[15] = system: NCI-H460 lung
[16] = system: CCRF-CEM leukemia
[17] = system: OVCAR-3 ovarian
[18] = system: ACHN renal
[19] = system: HOP-92 NSCLC
[20] = system: RPMI-8226 leukemia
[21] = system: U251 CNS
[22] = system: OVCAR-5 ovarian
[23] = system: COLO 205 colon
[24] = system: DU-145 prostate
[25] = system: UACC-62 melanoma
[26] = system: HCT-15 colon
[27] = system: SK-MEL-5 melanoma
[28] = system: SNB-75 CNS
[29] = system: OVCAR-8 ovarian
[30] = system: SNB-19 CNS
[31] = system: SK-MEL-2 melanoma
[32] = system: LOX IMVI melanoma
[33] = system: A549 NSCLC
[34] = system: HT29 colon
[35] = system: NCI-H522 lung
[36] = system: HCC-2998 colon
[37] = system: IGROV1 ovarian
[38] = system: MALME-3M melanoma
[39] = system: OVCAR-4 ovarian
[40] = system: MDA-N
[41] = system: SR leukemia
[42] = system: PC-3 prostate
[43] = system: A498 renal
[44] = system: CAKI-1 renal
[45] = system: K-562 leukemia
[46] = system: HL-60(TB) leukemia
[47] = system: SK-MEL-28 melanoma
[48] = system: SF-295 CNS
[49] = system: SW-620 colon
[50] = system: KM12 colon
[51] = system: NCI-H226 lung
[52] = system: MOLT-4 leukemia
[53] = system: HS 578T breast
[54] = system: 786-0 renal
[55] = system: MCF7 breast
[56] = system: TK-10 renal
[57] = system: HOP-62 NSCLC
[58] = system: EKVX NSCLC
[59] = system: UACC-257 melanoma

Measured: TGI

COc1ccc(NC2C(=O)C3(C)CCC2C3(C)C)cc1 (stereo unspecified)
> 100 µM: [1] | [2] | [3] | [4] | [5] | [6] | [7] | [8] | [9] | [10] | [11] | [12] | [13] | [14] | [15] | [16] | [17] | [18] | [19] | [20] | [21] | [22] | [23] | [24] | [25] | [26] | [28] | [29] | [30] | [31] | [32] | [33] | [34] | [35] | [36] | [37] | [38] | [39] | [40] | [41] | [42] | [43] | [44] | [45] | [46] | [47] | [48] | [49] | [50] | [51] | [52] | [53] | [54] | [55] | [56] | [57] | [58] | [59]
99.8 µM: [27]

CCCCCCCCCCCC(=O)N(CCCCCCCCCCC(=O)O)CC(O)C(O)C(OC1OC(CO)C(O)C(O)C1O)C(O)CO (stereo unspecified)
> 100 µM: [1] | [2] | [3] | [4] | [5] | [6] | [7] | [8] | [9] | [10] | [11] | [12] | [13] | [14] | [15] | [16] | [17] | [18] | [19] | [20] | [21] | [22] | [23] | [24] | [25] | [26] | [27] | [28] | [29] | [30] | [31] | [32] | [33] | [34] | [35] | [36] | [37] | [38] | [39] | [40] | [41] | [42] | [43] | [44] | [45] | [46] | [47] | [48] | [49] | [50] | [51] | [52] | [53] | [54] | [55] | [56] | [57] | [58] | [59]

O=C1c2ccccc2C(=O)N1[C@@H](Cc1ccccc1)C(=O)n1cccc1CO
56.6 µM: [6]
> 100 µM: [1] | [2] | [3] | [4] | [5] | [7] | [8] | [9] | [10] | [11] | [12] | [13] | [14] | [15] | [16] | [17] | [18] | [19] | [20] | [21] | [22] | [23] | [24] | [25] | [26] | [27] | [28] | [29] | [30] | [31] | [32] | [33] | [34] | [35] | [36] | [37] | [38] | [39] | [40] | [41] | [42] | [43] | [44] | [45] | [46] | [47] | [48] | [49] | [50] | [51] | [52] | [53] | [54] | [55] | [56] | [57] | [58] | [59]

C#CCN(Cc1cc2c(=O)[nH]c(C)nc2cc1C)c1ccc(C(=O)N[C@@H](CCc2nn[nH]n2)C(=O)O)c(F)c1
inactive: [1] | [2] | [3] | [4] | [5] | [6] | [7] | [8] | [9] | [10] | [11] | [12] | [13] | [14] | [15] | [16] | [17] | [18] | [19] | [20] | [21] | [22] | [23] | [24] | [25] | [26] | [27] | [28] | [29] | [30] | [31] | [32] | [33] | [34] | [35] | [36] | [37] | [38] | [39] | [40] | [41] | [42] | [43] | [44] | [45] | [46] | [47] | [48] | [49] | [50] | [51] | [52] | [53] | [54] | [55] | [56] | [57] | [58] | [59]
